Assay results as given in US6855730B2, “3-methylidenyl-2-indolinone modulators of protein kinase” (Sugen, Inc., priority 1998, dated 2005).
pIC50: −log10 of the molar value.

Assays:
[1] = test system: SKOV3 cells; experiment: SKOV3 growth assay (2% FBS); format: cell-based; conditions: Homo sapiens, SK-OV-3, read-out: SKOV3 growth (2% FBS) IC50
[2] = target: EGFR (Homo sapiens, UniProt P00533); experiment: EGFR assay (cellular ELISA, NIH 3T3/C7 cells); format: cell-based; parameters: expressed in transfected cells; host or cells: NIH 3T3/C7; conditions: read-out: cell EGF IC50
Chain of EGFR (P00533 25-1210): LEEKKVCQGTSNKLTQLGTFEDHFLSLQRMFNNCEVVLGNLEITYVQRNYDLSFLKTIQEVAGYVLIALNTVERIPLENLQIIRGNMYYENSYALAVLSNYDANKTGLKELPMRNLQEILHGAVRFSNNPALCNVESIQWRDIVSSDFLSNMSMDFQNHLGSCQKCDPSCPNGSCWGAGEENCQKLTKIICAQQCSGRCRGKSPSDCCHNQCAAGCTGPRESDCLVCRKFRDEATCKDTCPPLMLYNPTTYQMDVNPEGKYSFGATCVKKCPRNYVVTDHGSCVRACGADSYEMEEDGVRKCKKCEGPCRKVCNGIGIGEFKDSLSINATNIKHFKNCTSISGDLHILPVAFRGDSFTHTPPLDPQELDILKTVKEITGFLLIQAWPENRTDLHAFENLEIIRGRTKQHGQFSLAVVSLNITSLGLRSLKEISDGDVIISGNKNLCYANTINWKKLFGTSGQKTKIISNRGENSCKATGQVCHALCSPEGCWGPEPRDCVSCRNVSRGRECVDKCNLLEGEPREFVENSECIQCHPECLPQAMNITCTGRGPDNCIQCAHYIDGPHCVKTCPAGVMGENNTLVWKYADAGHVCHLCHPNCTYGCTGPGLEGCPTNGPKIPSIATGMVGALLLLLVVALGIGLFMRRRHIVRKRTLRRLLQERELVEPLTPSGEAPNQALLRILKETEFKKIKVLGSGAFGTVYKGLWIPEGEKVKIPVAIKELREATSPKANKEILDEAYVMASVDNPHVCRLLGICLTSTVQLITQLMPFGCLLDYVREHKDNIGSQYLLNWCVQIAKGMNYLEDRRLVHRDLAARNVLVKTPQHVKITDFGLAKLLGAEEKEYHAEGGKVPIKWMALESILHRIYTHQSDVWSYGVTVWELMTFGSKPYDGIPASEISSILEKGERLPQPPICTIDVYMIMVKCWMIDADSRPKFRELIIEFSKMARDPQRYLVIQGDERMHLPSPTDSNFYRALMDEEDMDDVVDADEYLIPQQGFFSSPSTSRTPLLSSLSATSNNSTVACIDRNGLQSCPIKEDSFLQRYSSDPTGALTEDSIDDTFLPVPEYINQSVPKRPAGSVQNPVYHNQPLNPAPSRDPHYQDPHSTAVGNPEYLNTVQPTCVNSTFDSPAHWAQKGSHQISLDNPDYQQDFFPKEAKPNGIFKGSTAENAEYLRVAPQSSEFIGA
Procedure: EGF Receptor kinase activity in cells genetically engineered to express human EGF-R can be measured as described below:
Materials and Reagents. • a. […] 05-101 (UBI) (a monoclonal antibody recognizing an EGFR extracellular domain). • c. Anti-phosphotyosine antibody (anti-Ptyr) (polyclonal). • d. Detection antibody: Goat anti-rabbit IgG horse radish peroxidase conjugate, TAGO, Inc. Burlingame, Calif. • e. TBST buffer:
• Keep solution in dark at 4° C. until used. • h. Stock reagents of:
Pre-coat ELISA Plate • 1. […] Coated plates are good for up to 10 days when stored at 4° C. • 2. On day-of use, remove coating buffer and replace with blocking buffer (5% Carnation Instant NonFat Dry Milk in PBS). Incubate the plate, shaking, at room temperature (about 23° C. to 25° C.) for 30 minutes. Just prior to use, remove blocking buffer and wash plate 4 times with TBST buffer.
Seeding Cells • 1. […] Choose dishes having 80-90% confluence for the experiment. Trypsinize cells and stop reaction by adding 10% CS DMEM medium. Suspend cells in DMEM medium (10% CS DMEM medium) and centrifuge once at 1000 rpm at room temperature for 5 minutes. • 3. Resuspend cells in seeding medium (DMEM, 0.5% bovine serum), and count the cells using trypan blue. Viability above 90% is acceptable. Seed cells in DMEM medium (0.5% bovine serum) at a density of 10,000 cells per well, 100 μl per well, in a 96 well microtiter plate. Incubate seeded cells in 5% CO2 at 37° C. for about 40 hours.
Assay Procedures. • 1. Check seeded cells for contamination using an inverted microscope. Dilute test compounds stock (10 mg/ml in DMSO) 1:10 in DMEM medium, then transfer 5 μl to a test well for a test compounds drug dilution of 1:200 and a final DMSO concentration of 1%. Control wells receive DMSO alone. Incubate in 5% CO2 at 37° C. for one hour. • 2. Prepare EGF ligand: dilute stock EGF in DMEM so that upon transfer of 10 μl dilute EGF (1:12 dilution), 25 nM final concentration is attained. • 3. Prepare fresh 10 ml HNTG* sufficient for 100 μl per well wherein HNTG* comprises: HNTG stock (2.0 ml), milli-Q H2O (7.3 ml), EDTA, 100 mM, pH 7.0 (0.5 ml), Na3VO4 0.5 M (0.1 ml) and Na4(P2O7), 0.2 M (0.1 ml). • 4. Place on ice. • 5. After two hours incubation with drug, add prepared EGF ligand to cells, 10 μl per well, to yield a final concentration of 25 nM. Control wells receive DMEM alone. Incubate, shaking, at room temperature, for 5 minutes. • 6. Remove test compound, EGF, and DMEM. Wash cells twice with PBS. Transfer HNTG* to cells, 100 μl per well. Place on ice for 5 minutes. Meanwhile, remove blocking buffer from other ELISA plate and wash with TBST as described above. • 7. With a pipette tip securely fitted to a micropipettor, scrape cells from plate and homogenize cell material by repeatedly aspirating and dispensing the HNTG* lysis buffer. Transfer lysate to a coated, blocked, and washed ELISA plate. Incubate shaking at room temperature for one hour. • 8. Remove lysate and wash 4 times with TBST. Transfer freshly diluted anti-Ptyr antibody to ELISA plate at 100 μl per well. Incubate shaking at room temperature for 30 minutes in the presence of the anti-Ptyr antiserum (1:3000 dilution in TBST). • 9. Remove the anti-Ptyr antibody and wash 4 times with TBST. Transfer the freshly diluted TAGO 30 anti-rabbit IgG antibody to the ELISA plate at 100 μl per well. Incubate shaking at room temperature for 30 minutes (anti-rabbit IgG antibody: 1:3000 dilution in TBST). • 10. Remove detection antibody and wash 4 times with TBST. Transfer freshly prepared ABTS/H2O2 solution to ELISA plate, 100 μl per well. Incubate at room temperature for 20 minutes. ABTS/H2O2 solution: 1.2 μl 30% H2O2 in 10 ml ABTS stock. • 11. Stop reaction by adding 50 μl 5N H2SO4 (optional), and determine O.D. at 410 nm. • 12. The maximal phosphotyrosine signal is determined by subtracting the value of the negative controls from the positive controls. […]

COc1cc(C)c(C=C2C(=O)Nc3cc(NC(C)=O)ccc32)cc1C(C)C [Example 27, N-[3-(5-Isopropyl-4-methoxy-2-methyl-benzylidene)-2-oxo-2,3-dihydro-1H-indol-6-yl]-acetamide]
pIC50 [1]: 5.29 | pIC50 [2]: 4.51

COc1ccc(C=C2C(=O)Nc3ccccc32)cc1-c1cccc(NC(C)=O)c1 [Example 29, N-[2′-Methoxy-5′-(2-oxo-1,2-dihydroindol-3-ylidenemethyl)-biphenyl-3-yl]-acetamide]
pIC50 [1]: 5.10 | pIC50 [2]: < 4.00

COc1cc(C)c(/C=C2/C(=O)Nc3ccc(F)cc32)cc1C(C)C [Example 30, 5-Fluoro-3-(5-isopropyl-4-methoxy-2-methyl-benzylidene)-1,3-dihydroindol-2-one]
pIC50 [1]: 4.80 | pIC50 [2]: 4.20

COc1ccc(/C=C2/C(=O)Nc3cc(NC(C)=O)ccc32)cc1-c1cccs1 [Example 31, N-[3-(4-Methoxy-3-thiophen-2-ylbenzylidene)-2-oxo-2,3-dihydro-1H-indol-6-yl]-acetamide]
pIC50 [1]: 6.40 | pIC50 [2]: 4.53

CC(=O)Nc1ccc2c(c1)NC(=O)/C2=C\c1ccc2c(c1)CCC(C)(C)O2 [Example 33, N-[3-(2,2-Dimethylchroman-6-ylmethylene)-2-oxo-2,3-dihydro-1H-indol-6-yl]-acetamide]
pIC50 [1]: 4.99 | pIC50 [2]: 4.27

COc1ccc(/C=C2/C(=O)Nc3ccccc32)cc1-c1ccsc1 [Example 35, 3-(4-Methoxy-3-thiophen-3-ylbenzylidene)-1,3-dihydroindol-2-one]
pIC50 [1]: 4.79 | pIC50 [2]: < 4.00

COc1cc(C)c(/C=C2/C(=O)Nc3ccc(Br)cc32)cc1C(C)C [Example 36, 5-Bromo-3-(5-isopropyl-4-methoxy-2-methyl-benzylidene)-1,3-dihydroindol-2-one]
pIC50 [1]: < 4.60 | pIC50 [2]: 4.18

COc1cc(/C=C2/C(=O)Nc3ccccc32)c(-c2cccs2)cc1OC [Example 39, 3-(4,5-Dimethoxy-2-thiophen-2-ylbenzylidene)-1,3-dihydroindol-2-one]
pIC50 [1]: 5.02 | pIC50 [2]: < 4.00

CC(=O)Nc1ccc2c(c1)NC(=O)/C2=C/c1ccc(OCCN2CCOCC2)c(-c2cccs2)c1 [Example 40, N-{3-[4-(2-Morpholin-4-ylethoxy)-3-thiophen-2-ylbenzylidene]-2-oxo-2,3-dihydro-1H-indol-6-yl}-acetamide]
pIC50 [1]: 4.65 | pIC50 [2]: 4.10

CCOc1cccc(-c2cc(C=C3C(=O)Nc4ccccc43)ccc2OC)c1 [Example 46, 3-(3′-Ethoxy-6-methoxybiphenyl-3-ylmethylene)-1,3-dihydroindol-2-one]
pIC50 [1]: 5.11 | pIC50 [2]: < 4.00

COc1ccc(/C=C2/C(=O)Nc3ncccc32)cc1C1CCCC1 [Example 47, 3-(3-Cyclopentyl-4-methoxybenzylidene)-1,3-dihydropyrrolo[2,3-b]pyridin-2-one]
pIC50 [1]: 4.33 | pIC50 [2]: < 4.00

COc1cc(C=C2C(=O)Nc3ccccc32)c(-c2ccccc2OC)cc1OC [Example 49, 3-(4,5,2′-Trimethoxybiphenyl-2-ylmethylene)-1,3-dihydroindol-2-one]
pIC50 [1]: 4.69 | pIC50 [2]: < 4.00

COc1ccc(/C=C2/C(=O)Nc3ccc(Cl)cc32)cc1C1CCCCC1 [Example 51, 5-Chloro-3-(3-cyclohexyl-4-methoxybenzylidene)-1,3-dihydroindol-2-one]
pIC50 [1]: 4.84 | pIC50 [2]: < 4.00

COc1c(C)cc(/C=C2/C(=O)Nc3ncccc32)cc1C [Example 56, 3-(4-Methoxy-3,5-dimethylbenzylidene)-1,3-dihydropyrrolo[2,3-b]pyridin-2-one]
pIC50 [1]: < 4.70 | pIC50 [2]: < 4.00

CC(C)c1cc(/C=C2/C(=O)Nc3ccc(Br)cc32)cc(C(C)C)c1OCCN1CCOCC1 [Example 57, 5-Bromo-3-[3,5-diisopropyl-4-(2-morpholin-4-ylethoxy)benzylidene]-1,3-dihydroindol-2-one]
pIC50 [1]: 5.40 | pIC50 [2]: < 4.00

CCOc1cccc(-c2cc(OC)c(OC)cc2/C=C2/C(=O)Nc3ccccc32)c1 [Example 58, 3-(3′-Ethoxy-4,5-dimethoxybiphenyl-2-ylmethylene)-1,3-dihydroindol-2-one]
pIC50 [1]: 4.66 | pIC50 [2]: < 4.00

COc1ccc(/C=C2/C(=O)Nc3ccc(Cl)cc32)cc1-c1cccs1 [Example 59, 5-chloro-3-(4-Methoxy-3-thiophen-2-ylbenzylidene)-1,3-dihydroindol-2-one]
pIC50 [1]: 4.76 | pIC50 [2]: < 4.00

COc1ccc(/C=C2/C(=O)Nc3ccc(Cl)cc32)cc1-c1cccnc1 [Example 60]
pIC50 [1]: 5.32 | pIC50 [2]: < 4.00

COc1cccc(-c2cc(OC)c(OC)cc2/C=C2/C(=O)Nc3ccc(Cl)cc32)c1 [Example 61, 5-Chloro-3-(4,5-3′-Trimethoxybiphenyl-2-ylmethylene)-1,3-dihydroindol-2-one]
pIC50 [1]: < 4.60 | pIC50 [2]: < 4.00

COc1cc(/C=C2/C(=O)Nc3ccccc32)c(-c2ccc3ccccc3c2)cc1OC [Example 62, 3-(4,5-Dimethoxy-2-naphthalen-2-ylbenzylidene)-1,3-dihydroindol-2-one]
pIC50 [1]: 5.21 | pIC50 [2]: < 4.00
